From patent US20240254114A1, “PREPARATION OF FUSED AZOLE DERIVATIVES AS NOVEL DIACYLGLYCERIDE 0-ACYLTRANSFERASE 2 INHIBITORS” (Merck Sharp & Dohme LLC, priority 2022, published 2024)
Where two headings read alike, the source gives them in different places.

Target: human DGAT2 (Homo sapiens (Human), UniProt Q96PD7)
Test: DGAT2 Enzymatic Activity Assay
Settings: 13C18-triolein product by LC/MS/MS
[1] = read-out: Human DGAT2 IC50, hDGAT2 membrane prep from Sf-9 cells
[2] = Human DGAT2 IC50, hDGAT2 membrane prep from Sf-9 cells

Sequence of human DGAT2 (Q96PD7 whole entry): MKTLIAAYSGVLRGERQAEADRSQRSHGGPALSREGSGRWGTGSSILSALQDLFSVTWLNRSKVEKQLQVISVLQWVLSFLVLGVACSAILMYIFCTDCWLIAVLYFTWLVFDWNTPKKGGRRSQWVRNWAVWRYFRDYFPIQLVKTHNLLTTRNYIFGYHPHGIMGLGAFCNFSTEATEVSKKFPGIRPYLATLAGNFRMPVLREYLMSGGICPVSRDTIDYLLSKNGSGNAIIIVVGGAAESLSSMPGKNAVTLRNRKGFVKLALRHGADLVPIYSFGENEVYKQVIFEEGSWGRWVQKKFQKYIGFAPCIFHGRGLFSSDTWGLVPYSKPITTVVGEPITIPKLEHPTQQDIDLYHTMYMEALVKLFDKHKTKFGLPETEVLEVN
Experimental: Sf-9 insect cells were maintained in Grace's insect cell culture medium with 10% heated-inactivated fetal bovine serum, 1% Pluronic F-68 and 0.14 μg/ml Kanamycine sulfate at 27° C. in a shaker incubator. After infection with untagged baculovirus expressing human DGAT2 (hDGAT2) at multiplicity of infection (MOI) 3 for 48 hours, cells were harvested. Cell pellets were suspended in buffer containing 10 mM Tris-HCl pH 7.5, 1 mM EDTA, 250 mM sucrose and Complete Protease Inhibitor Cocktail (Sigma Aldrich), and sonicated on ice. Cell debris were removed by centrifugation at 2000×g for 15 minutes. Membrane fractions were isolated by ultracentrifugation (100,000×g), resuspended in the same buffer, and frozen (−80° C.) for later use. The protein concentration was determined with the Pierce™ BCA Protein Assay Kit (Thermo Fisher Scientific).
LC/MS/MS analyses were performed using Thermal Fisher's LX4-TSQ Vantage system. This system consists of an Agilent binary high-performance liquid chromatography (HPLC) pump and a TSQ Vantage triple quadrupole MS/MS instrument. For each sample, 2 μL samples from the top organic layer of in-plate liquid-liquid extraction were injected onto a Thermo Betabasic C4 column (2.1 mm×20 mm, 5 μm particle size). The samples were then eluted using the following conditions; mobile phase: Isopropanol: acetonitrile/10 mM ammonium formate=50/35/15 (v/v/v), flow rate: 0.8 mL/min, temperature: 25° C. Data was acquired in positive mode using a heated electrospray ionization (HESI) interface. […] The peak area was integrated by Xcalibur Quan software. The ratio between the ^13C18 triolein generated in the reaction and spiked in internal standard ^13C21-triolein was used to generate percentage inhibition and IC50 values. […] DGAT2 activity was determined by measuring the amount of enzymatic product ^13C18-triolein (^13C-1,2,3-Tri(cis-9-octadecenoyl)glycerol) using the membrane prep mentioned above. The assay was carried out in ABgene 384-well assay plates in a final volume of 25 μL at rt.

Structure (SMILES) | IC50 [1] | IC50 [2]
Cn1c(C(=O)NC2(C)CCS(=O)(=O)CC2)nc2cnc(Oc3ncc(F)cc3OCC(F)(F)F)c(F)c21 [Example 77, 7-fluoro-6-[[5-fluoro-3-(2,2,2-trifluoroethoxy)-2-pyridyl]oxy]-1-methyl-N-(4-methyl-1,1-dioxo-thian-4-yl)imidazo[4,5-c]pyridine-2-carboxamide] | 48 nM | 
Cn1c(C(=O)NC2(C)CCS(=O)(=O)CC2)nc2ccc(OCc3ncc(Cl)cc3OCC(F)F)nc21 [Example 58, 5-((5-Chloro-3-(2,2-difluoroethoxy)pyridin-2-yl)methoxy)-3-methyl-N-(4-methyl-1,1-dioxidotetrahydro-2H-thiopyran-4-yl)-3H-imidazo[4,5-b]pyridine-2-carboxamide] |  | 2.3 nM
Cn1c(C(=O)NC2(C)CCS(=O)(=O)CC2)nc2ccc(OCc3ncc(F)cc3OCC(F)(F)F)nc21 [Example 59, 5-[[5-Fluoro-3-(2,2,2-trifluoroethoxy)-2-pyridyl]methoxy]-3-methyl-N-(4-methyl-1,1-dioxo-thian-4-yl)imidazo[4,5-b]pyridine-2-carboxamide] | 2.8 nM | 
Cn1c(C(=O)NC2(C)CCS(=O)(=O)CC2)nc2cc(F)c(Oc3ncc(Cl)cc3OCC(F)F)nc21 [Example 41, 5-((5-chloro-3-(2,2-difluoroethoxy)pyridin-2-yl)oxy)-6-fluoro-3-methyl-N-(4-methyl-1,1-dioxidotetrahydro-2H-thiopyran-4-yl)-3H-imidazo[4,5-b]pyridine-2-carboxamide] |  | 1.5 nM
CCn1c(C(=O)NC2(C)CCS(=O)(=O)CC2)nc2ccc(Oc3ncc(Cl)cc3OCC(F)F)nc21 [Example 55, 5-((5-chloro-3-(2,2-difluoroethoxy)pyridin-2-yl)oxy)-3-ethyl-N-(4-methyl-1,1-dioxidotetrahydro-2H-thiopyran-4-yl)-3H-imidazo[4,5-b]pyridine-2-carboxamide] | 8.9 nM | 
O=C(N[C@H]1CCCC(F)(F)[C@@H]1O)c1nc2ccc(Oc3ncc(Cl)cc3OCC(F)(F)F)cc2o1 [Example 1, 6-[[5-chloro-3-(2,2,2-trifluoroethoxy)-2-pyridyl]oxy]-N-[(1S,2R)-3,3-difluoro-2-hydroxy-cyclohexyl]-1,3-benzoxazole-2-carboxamide] |  | 570 nM
Cn1c(C(=O)NC2(C)CCS(=O)(=O)CC2)nc2ccc(OCC(OCC(F)F)C(F)F)nc21 (single isomer, unassigned) [Example 65a, 5-[2-(2,2-difluoroethoxy)-3,3-difluoro-propoxy]-3-methyl-N-(4-methyl-1,1-dioxo-thian-4-yl)imidazo[4,5-b]pyridine-2-carboxamide] |  | 215 nM
CC1(NC(=O)c2nc3ccc(Oc4ncccc4OCC(F)(F)F)cc3o2)CCS(=O)(=O)CC1 [Example 2, N-(4-methyl-1,1-dioxo-thian-4-yl)-6-[[3-(2,2,2-trifluoroethoxy)-2-pyridyl]oxy]-1,3-benzoxazole-2-carboxamide] | 47 nM | 
CC1(NC(=O)c2nc3ccc(Oc4ncc(Cl)cc4OCC(F)F)nc3s2)CCS(=O)(=O)CC1 [Example 94, 5-((5-Chloro-3-(2,2-difluoroethoxy)pyridin-2-yl)oxy)-N-(4-methyl-1,1-dioxidotetrahydro-2H-thiopyran-4-yl)thiazolo[5,4-b]pyridine-2-carboxamide] |  | 2 nM
CC1(NC(=O)c2nc3ccc(Oc4ncc(Cl)cc4OCC(F)(F)F)cc3o2)CCC(F)(F)CC1 [Example 9, 6-[[5-chloro-3-(2,2,2-trifluoroethoxy)-2-pyridyl]oxy]-N-(4,4-difluoro-1-methyl-cyclohexyl)-1,3-benzoxazole-2-carboxamide] | 29 nM | 
Cn1c(C(=O)NC2(C)CCS(=O)(=O)CC2)nc2ccc(OCC(CC(F)(F)F)OC(F)F)nc21 (single isomer, unassigned) [Example 62a, 5-[2-(difluoromethoxy)-4,4,4-trifluoro-butoxy]-3-methyl-N-(4-methyl-1,1-dioxo-thian-4-yl)imidazo[4,5-b]pyridine-2-carboxamide] |  | 1330 nM
CC1(NC(=O)c2nc3nc(Oc4ncc(Cl)cc4OCC(F)F)ccc3n2CC(F)F)CCS(=O)(=O)CC1 [Example 53, 5-((5-chloro-3-(2,2-difluoroethoxy)pyridin-2-yl)oxy)-1-(2,2-difluoroethyl)-N-(4-methyl-1,1-dioxidotetrahydro-2H-thiopyran-4-yl)-1H-imidazo[4,5-b]pyridine-2-carboxamide] | 134 nM | 
Cn1c(C(=O)NC2(C)CCS(=O)(=O)CC2)nc2cnc(Oc3ncc(F)cc3OCC(F)(F)F)nc21 [Example 89, 2-[[5-fluoro-3-(2,2,2-trifluoroethoxy)-2-pyridyl]oxy]-9-methyl-N-(4-methyl-1,1-dioxo-thian-4-yl)purine-8-carboxamide] | 25 nM | 
CC1(NC(=O)c2nc3ccc(Oc4ncccc4OCC(F)(F)F)cc3s2)CS(=O)(=O)C1 [Example 92, N-(3-methyl-1,1-dioxo-thietan-3-yl)-6-[[3-(2,2,2-trifluoroethoxy)-2-pyridyl]oxy]-1,3-benzothiazole-2-carboxamide] | 12 nM | 
Cn1c(C(=O)NC2(C)CS(=O)(=O)C2)nc2ccc(Oc3ncccc3OCC(F)(F)F)nc21 [Example 35, 3-methyl-N-(3-methyl-1,1-dioxidothietan-3-yl)-5-((3-(2,2,2-trifluoroethoxy)pyridin-2-yl)oxy)-3H-imidazo[4,5-b]pyridine-2-carboxamide] | > 9990 nM | 
Cc1c(Oc2ncc(F)cc2OCC(F)(F)F)cnc2nc(C(=O)NC3(C)CCS(=O)(=O)CC3)n(C)c12 [Example 85, 6-[[5-fluoro-3-(2,2,2-trifluoroethoxy)-2-pyridyl]oxy]-1,7-dimethyl-N-(4-methyl-1,1-dioxo-thian-4-yl)imidazo[4,5-b]pyridine-2-carboxamide] | 175 nM | 
Cc1c(Oc2ncc(Cl)cc2OCC(F)F)cnc2nc(C(=O)NC3(C)CCS(=O)(=O)CC3)n(C)c12 [Example 84, 6-[[5-Chloro-3-(2,2-difluoroethoxy)-2-pyridyl]oxy]-1,7-dimethyl-N-(4-methyl-1,1-dioxo-thian-4-yl)imidazo[4,5-b]pyridine-2-carboxamide] |  | 7.8 nM
Cn1c(C(=O)NC2(C)CCS(=O)(=O)CC2)nc2ccc(OCC(CC(F)(F)F)OCC(F)F)nc21 (single isomer, unassigned) [Example 63b, 5-[2-(2,2-difluoroethoxy)-4,4,4-trifluoro-butoxy]-3-methyl-N-(4-methyl-1,1-dioxo-thian-4-yl)imidazo[4,5-b]pyridine-2-carboxamide] |  | 0.8 nM
Cn1c(C(=O)NC2(C)CS(=O)(=O)C2)nc2cnc(Oc3ncc(F)cc3OCC(F)F)cc21 [Example 71, 6-[[3-(2,2-difluoroethoxy)-5-fluoro-2-pyridyl]oxy]-1-methyl-N-(3-methyl-1,1-dioxo-thietan-3-yl)imidazo[4,5-c]pyridine-2-carboxamide] | 269 nM | 
Cn1c(C(=O)NC2(C)CCS(=O)(=O)CC2)nc2c(Cl)c(Oc3ncc(Cl)cc3OCC(F)(F)F)ccc21 [Example 24, 4-Chloro-5-((5-chloro-3-(2,2,2-trifluoroethoxy)pyridin-2-yl)oxy)-1-methyl-N-(4-methyl-1,1-dioxidotetrahydro-2H-thiopyran-4-yl)-1H-benzo[d]imidazole-2-carboxamide] |  | 89 nM
Cn1c(C(=O)NC2(C)CCS(=O)(=O)CC2)nc2cnc(Oc3ncc(F)cc3OCC(F)(F)F)cc21 [Example 68, 6-[[5-fluoro-3-(2,2,2-trifluoroethoxy)-2-pyridyl]oxy]-1-methyl-N-(4-methyl-1,1-dioxo-thian-4-yl)imidazo[4,5-c]pyridine-2-carboxamide] | 27 nM | 
Cn1c(C(=O)NC2(C)CCS(=O)(=O)CC2)nc2cnc(Oc3ncc(Cl)cc3OCC(F)F)cc21 [Example 66, 6-((5-Chloro-3-(2,2-difluoroethoxy)pyridin-2-yl)oxy)-1-methyl-N-(4-methyl-1,1-dioxidotetrahydro-2H-thiopyran-4-yl)-1H-imidazo[4,5-c]pyridine-2-carboxamide] |  | 16 nM
Cn1c(C(=O)NC2(C)CCS(=O)(=O)CC2)nc2ccc(Oc3ncc(F)cc3OCC(F)(F)F)nc21 [Example 29, 5-((5-Fluoro-3-(2,2,2-trifluoroethoxy)pyridin-2-yl)oxy)-3-methyl-N-(4-methyl-1,1-dioxidotetrahydro-2H-thiopyran-4-yl)-3H-imidazo[4,5-b]pyridine-2-carboxamide] |  | 12 nM
Cc1c(Oc2ncc(Cl)cc2OCC(F)(F)F)ccc2c1nc(C(=O)NC1(C)CCS(=O)(=O)CC1)n2C [Example 26, 5-((5-chloro-3-(2,2,2-trifluoroethoxy)pyridin-2-yl)oxy)-1,4-dimethyl-N-(4-methyl-1,1-dioxidotetrahydro-2H-thiopyran-4-yl)-1H-benzo[d]imidazole-2-carboxamide] |  | 44 nM
CC1(NC(=O)c2nc3ncc(Oc4ncccc4OCC(F)(F)F)cc3o2)CCS(=O)(=O)CC1 [Example 98, N-(4-methyl-1,1-dioxidotetrahydro-2H-thiopyran-4-yl)-6-((3-(2,2,2-trifluoroethoxy)pyridin-2-yl)oxy)oxazolo[4,5-b]pyridine-2-carboxamide] |  | 681 nM
Cn1c(C(=O)NC2(C)CS(=O)(=O)C2)nc2cnc(Oc3ncc(Cl)cc3OCC(F)F)cc21 [Example 70, 6-[[5-chloro-3-(2,2-difluoroethoxy)-2-pyridyl]oxy]-1-methyl-N-(3-methyl-1,1-dioxo-thietan-3-yl)imidazo[4,5-c]pyridine-2-carboxamide] | 11 nM | 
Cn1c(C(=O)NC2(C)CCS(=O)(=O)CC2)nc2cnc(OCc3ncc(F)cc3OCC(F)(F)F)cc21 [Example 81, 6-[[5-Fluoro-3-(2,2,2-trifluoroethoxy)-2-pyridyl]methoxy]-1-methyl-N-(4-methyl-1,1-dioxo-thian-4-yl)imidazo[4,5-c]pyridine-2-carboxamide] | 262 nM | 
Cn1c(C(=O)NC2(C)CCS(=O)(=O)CC2)nc2cnc(Oc3ncc(Cl)cc3OCC(C)(F)F)cc21 [Example 67, 6-[[5-chloro-3-(2,2-difluoropropoxy)-2-pyridyl]oxy]-1-methyl-N-(4-methyl-1,1-dioxo-thian-4-yl)imidazo[4,5-c]pyridine-2-carboxamide] | 24 nM | 
